Laboratory results: ChEMBL document CHEMBL5518192, “Targeting aromatase to restrain oestrogen production and developing efficacious interventions against ER-positive cancer” (Eur J Med Chem, 2024)

Experiments:
MDA-MB-468 = assay: Growth inhibition of estrogen receptor negative human MDA-MB-468 cells at 10 uM incubated for 48 hrs by SRB assay relative to control; type: functional; conditions: read-out: GI
Hs-578T = assay: cells; conditions: Homo sapiens, 48 h, read-out: GI
T47D = assay: cells; conditions: Homo sapiens, 48 h, read-out: GI
physchem = conditions: octanol/water
Description: Octanol/water partition coefficient, log P of the compound

Aromatase [1] = target: T1, Aromatase (Homo sapiens, UniProt P11511)
T1 sequence (P11511 whole entry): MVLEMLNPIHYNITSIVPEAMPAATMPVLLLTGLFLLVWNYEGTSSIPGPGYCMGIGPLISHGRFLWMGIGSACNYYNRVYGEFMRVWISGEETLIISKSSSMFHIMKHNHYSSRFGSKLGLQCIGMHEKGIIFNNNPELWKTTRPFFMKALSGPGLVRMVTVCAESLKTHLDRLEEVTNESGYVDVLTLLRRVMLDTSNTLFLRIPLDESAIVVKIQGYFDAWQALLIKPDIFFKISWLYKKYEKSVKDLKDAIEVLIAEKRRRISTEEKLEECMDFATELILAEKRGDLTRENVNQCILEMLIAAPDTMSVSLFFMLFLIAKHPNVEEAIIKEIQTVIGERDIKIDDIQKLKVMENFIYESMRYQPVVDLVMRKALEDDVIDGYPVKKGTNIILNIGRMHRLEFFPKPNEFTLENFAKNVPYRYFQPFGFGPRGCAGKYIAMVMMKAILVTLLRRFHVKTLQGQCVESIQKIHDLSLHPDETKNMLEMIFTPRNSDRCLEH
Description: Inhibition of human aromatase preincubated for 10 mins followed by NADP+/fluorogenic substrate mixture addition and measured for 60 mins by fluorimetric assay

MDA-MB-231 = assay: Growth inhibition of estrogen receptor negative human MDA-MB-231 cells at 10 uM incubated for 48 hrs by SRB assay relative to control; type: functional; conditions: read-out: GI
MCF7 = assay: cells; conditions: Homo sapiens, MCF7, 48 h, read-out: GI
Albumin [2] = target: T2, Albumin (Homo sapiens, UniProt P02768); assay: Binding affinity to human serum albumin phosphate buffer at pH 7.4 assessed as conformational change in HSA by measuring increase in absorbance at 20 uM by UV-Vis absorption spectrum based analysis; type: ADME; conditions: isolated protein, pH 7.4, 20 µM
BT-549 = assay: cells; conditions: Homo sapiens, BT-549, 48 h, read-out: GI
Aromatase [3] = target: T1, Aromatase; assay: Competitive inhibition of human aromatase using varying concentrations of androstenedione as substrate assessed as […] in Km with constant Vmax at 10 uM by Lineweaver-Burk equation based analysis
Aromatase [4] = target: T1, Aromatase; assay: Binding affinity to human aromatase assessed as hyperchromic shift by measuring increase in absorbance intensity at 5 uM by UV-Vis spectral analysis
in vitro = conditions: human, plasma
Description: Stability in human plasma assessed drug degradation at 50 uM measured after 120 mins by spectrometer

Aromatase [5] = target: T1, Aromatase; assay: Binding affinity to human aromatase assessed as inhibition constant by Cheng-Prosuff equation based analysis
Aromatase [6] = target: T1, Aromatase; assay: Binding affinity to human aromatase assessed as binding constant by Benesi-Hildebrand equation based analysis
Aromatase [7] = target: T1, Aromatase; assay: Binding affinity to human aromatase assessed as change in free energy
Albumin [8] = target: T2, Albumin; assay: Binding affinity to human serum albumin assessed as binding constant by spectrophotometer; type: ADME; conditions: isolated protein

T2 sequence (P02768 whole entry): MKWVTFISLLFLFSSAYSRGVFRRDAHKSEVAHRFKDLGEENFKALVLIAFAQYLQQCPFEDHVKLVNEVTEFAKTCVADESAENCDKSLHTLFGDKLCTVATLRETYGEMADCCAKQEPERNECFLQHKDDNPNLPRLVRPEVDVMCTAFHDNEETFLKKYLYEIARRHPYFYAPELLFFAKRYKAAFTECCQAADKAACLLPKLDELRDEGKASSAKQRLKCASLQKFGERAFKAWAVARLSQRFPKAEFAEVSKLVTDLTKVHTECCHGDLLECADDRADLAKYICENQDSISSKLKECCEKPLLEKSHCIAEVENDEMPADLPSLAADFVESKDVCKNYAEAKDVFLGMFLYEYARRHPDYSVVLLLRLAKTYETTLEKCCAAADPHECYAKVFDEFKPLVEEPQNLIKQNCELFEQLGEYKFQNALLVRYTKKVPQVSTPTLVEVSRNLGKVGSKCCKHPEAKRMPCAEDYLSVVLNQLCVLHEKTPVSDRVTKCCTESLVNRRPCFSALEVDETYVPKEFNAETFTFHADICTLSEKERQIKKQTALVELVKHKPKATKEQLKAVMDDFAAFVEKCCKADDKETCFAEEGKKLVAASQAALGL

In the case of CC(=C(c1ccccc1)c1ccc(NCCCCCn2cc(C(=O)C(=O)O)c3ccccc32)cc1)c1ccccc1, the inhibition of growth at 10 µM (MDA-MB-468) is reported as 7.71%, the inhibition of growth at 10 µM (Hs-578T) is reported as 12.4% and the inhibition of growth at 10 µM (T47D) is reported as 13%. For the same molecule, the logP (physchem) was 4.97 and the IC50 (Aromatase [1]) was 3.17 µM.
For CCOC(=O)C(=O)c1cn(CCCCNc2ccc(/C(=C(/C)c3ccccc3OC)c3ccccc3)cc2)c2ccccc12, the logP (physchem) was 4.13 and the IC50 (Aromatase [1]) was 3.2 µM.
With COc1ccccc1/C(C)=C(/c1ccccc1)c1ccc(NCCCCCn2cc(C(=O)C(=O)O)c3ccccc32)cc1 the logP (physchem) was 4.46 and the IC50 (Aromatase [1]) was 12.3 µM.
CCOC(=O)C(=O)c1cn(CCCCNc2ccc(/C(=C(/C)c3cccc(Br)c3)c3ccccc3)cc2)c2ccccc12 showed a logP (physchem) of 4.99 and an IC50 (Aromatase [1]) of 3.86 µM.
Molecule CCOC(=O)C(=O)c1cn(CCCNc2ccc(C(=C(C)c3ccccc3)c3ccccc3)cc2)c2ccccc12 has an inhibition of growth at 10 µM (MDA-MB-231) of 13.6%, an inhibition of growth at 10 µM (T47D) of 41% and a logP (physchem) of 4.46. It also gave an IC50 (Aromatase [1]) of 0.65 µM and an inhibition of growth at 10 µM (MCF7) of 10.9%.
In the case of CCOC(=O)C(=O)Nc1ccc(/C(=C(/C)c2ccc(Cl)cc2)c2ccccc2)cc1, the Activity (Albumin [2]) is reported as “Active”.
With COc1ccccc1/C(C)=C(/c1ccccc1)c1ccc(NCCCCn2cc(C(=O)C(=O)O)c3ccccc32)cc1 the logP (physchem) was 4.29 and the IC50 (Aromatase [1]) was 0.55 µM.
Work on CC(=C(c1ccccc1)c1ccc(NCCCCCCn2cc(C(=O)C(=O)O)c3ccccc32)cc1)c1ccccc1 yielded a logP (physchem) of 5.15.
With CC(=C(c1ccccc1)c1ccc(NCCn2cc(C(=O)C(=O)O)c3ccccc32)cc1)c1ccccc1 the inhibition of growth at 10 µM (MDA-MB-468) was 55.1%, the inhibition of growth at 10 µM (Hs-578T) was 46.4% and the inhibition of growth at 10 µM (MDA-MB-231) was 13.3%. It also gave an inhibition of growth at 10 µM (T47D) of 38.9%, a logP (physchem) of 4.43 and an IC50 (Aromatase [1]) of 9.73 µM. The inhibition of growth at 10 µM (MCF7) was 47.3% and the inhibition of growth at 10 µM (BT-549) was 32.5%.
C/C(=C(\c1ccccc1)c1ccc(NCCCCn2cc(C(=O)C(=O)O)c3ccccc32)cc1)c1cccc(Br)c1 gave a logP (physchem) of 5.15 and an IC50 (Aromatase [1]) of 6.8 µM.
CCOC(=O)C(=O)c1cn(CCCCCNc2ccc(/C(=C(/C)c3cccc(Br)c3)c3ccccc3)cc2)c2ccccc12 showed a logP (physchem) of 5.16 and an IC50 (Aromatase [1]) of 0.79 µM.
C/C(=C(\c1ccccc1)c1ccc(NCCCCCn2cc(C(=O)C(=O)O)c3ccccc32)cc1)c1cccc(Br)c1 showed a logP (physchem) of 5.33 and an IC50 (Aromatase [1]) of 0.8 µM.
In the case of CCOC(=O)C(=O)c1cn(CCCCNc2ccc(C(=C(C)c3ccccc3)c3ccccc3)cc2)c2ccccc12, the inhibition of growth at 10 µM (T47D) is reported as 5.76%, the logP (physchem) is reported as 4.63 and the IC50 (Aromatase [1]) is reported as 0.5 µM.
CCOC(=O)C(=O)c1cn(CCCCCCNc2ccc(C(=C(C)c3ccccc3)c3ccccc3)cc2)c2ccccc12 gave a logP (physchem) of 4.98 and an IC50 (Aromatase [1]) of 1.94 µM.
Molecule CC(=C(c1ccccc1)c1ccc(NCCCn2cc(C(=O)C(=O)O)c3ccccc32)cc1)c1ccccc1 has an inhibition of growth at 10 µM (Hs-578T) of 14.1%, a logP (physchem) of 4.61 and an IC50 (Aromatase [1]) of 0.178 µM. For the same molecule, the inhibition of growth at 10 µM (BT-549) was 14.8%.
N#Cc1ccc(C(c2ccc(C#N)cc2)n2cncn2)cc1 [LETROZOLE] showed a logP (physchem) of 2.29.
Work on CCOC(=O)C(=O)c1cn(CCCCCNc2ccc(/C(=C(/C)c3ccccc3OC)c3ccccc3)cc2)c2ccccc12 yielded a logP (physchem) of 4.31 and an IC50 (Aromatase [1]) of 0.133 µM.
CC(=C(c1ccccc1)c1ccc(NCCCCn2cc(C(=O)C(=O)O)c3ccccc32)cc1)c1ccccc1 gave an inhibition of growth at 10 µM (MDA-MB-468) of 12.9%, an inhibition of growth at 10 µM (Hs-578T) of 60.2% and an inhibition of growth at 10 µM (T47D) of 13.7%. For the same molecule, the logP (physchem) was 4.79, the IC50 (Aromatase [1]) was 1.37 µM and the inhibition of growth at 10 µM (MCF7) was 14.3%. It also gave an inhibition of growth at 10 µM (BT-549) of 40.2%.
With CCOC(=O)C(=O)Nc1ccc(/C(=C(/C)c2ccc(OC)cc2)c2ccccc2)cc1 the Activity (Albumin [2]) was “Active”.
For CCOC(=O)C(=O)c1cn(CCNc2ccc(C(=C(C)c3ccccc3)c3ccccc3)cc2)c2ccccc12, the logP (physchem) was 4.28 and the IC50 (Aromatase [1]) was 1.39 µM.
In the case of CCOC(=O)C(=O)c1cn(CCCCCNc2ccc(C(=C(C)c3ccccc3)c3ccccc3)cc2)c2ccccc12, the “inhibition (INH)” value (Aromatase [3]) is reported as “Active”, the Activity (Aromatase [4]) is reported as “Active” and the metabolised at 2 h, 50 µM (in vitro) is reported as 15.5%. The inhibition of growth at 10 µM (MDA-MB-468) was 24.3%, the inhibition of growth at 10 µM (Hs-578T) was 6.04% and the inhibition of growth at 10 µM (MDA-MB-231) was 18.2%. The Ki (Aromatase [5]) was 0.026 µM, the inhibition of growth at 10 µM (T47D) was 30.1% and the Ka (Aromatase [6]) was 5.5 10^4/M. It also gave a logP (physchem) of 4.81, a deltaG (Aromatase [7]) of -6.72 kcal/mol and an IC50 (Aromatase [1]) of 0.054 µM. The inhibition of growth at 10 µM (MCF7) was 8.48%, the Activity (Albumin [2]) was “Active” and the Ka (Albumin [8]) was 2.8 10^4/M.
With CC/C(=C(\c1ccccc1)c1ccc(OCCN(C)C)cc1)c1ccccc1 [TAMOXIFEN] the inhibition of growth at 10 µM (MDA-MB-468) was -13.3%, the inhibition of growth at 10 µM (Hs-578T) was 39.5% and the inhibition of growth at 10 µM (MDA-MB-231) was 54.8%. It also gave an inhibition of growth at 10 µM (MCF7) of -10.3% and an inhibition of growth at 10 µM (BT-549) of 30.2%.
